According to ChEMBL document CHEMBL4507275, “Data for DCP probe BI-2545” (2021):

How the values were obtained:
[1] = molecular target: AP2-associated protein kinase 1 (Homo sapiens) (UniProt Q2M2I8); settings: Compound concentration 1000.0 nM
[2] = molecular target: Activin receptor type-1B (Homo sapiens) (UniProt P36896); settings: Compound concentration 1000.0 nM
[3] = molecular target: RAC-gamma serine/threonine-protein kinase (Homo sapiens) (UniProt Q9Y243); settings: Compound concentration 1000.0 nM
[4] = molecular target: Aurora kinase A (Homo sapiens) (UniProt O14965); settings: Compound concentration 1000.0 nM
[5] = molecular target: Bone morphogenetic protein receptor type-1A (Homo sapiens) (UniProt P36894); settings: Compound concentration 1000.0 nM
[6] = molecular target: Calcium/calmodulin-dependent protein kinase type 1 (Homo sapiens) (UniProt Q14012); settings: Compound concentration 1000.0 nM
Chain of Calcium/calmodulin-dependent protein kinase type 1 (Homo sapiens) (Q14012 whole entry, looked up): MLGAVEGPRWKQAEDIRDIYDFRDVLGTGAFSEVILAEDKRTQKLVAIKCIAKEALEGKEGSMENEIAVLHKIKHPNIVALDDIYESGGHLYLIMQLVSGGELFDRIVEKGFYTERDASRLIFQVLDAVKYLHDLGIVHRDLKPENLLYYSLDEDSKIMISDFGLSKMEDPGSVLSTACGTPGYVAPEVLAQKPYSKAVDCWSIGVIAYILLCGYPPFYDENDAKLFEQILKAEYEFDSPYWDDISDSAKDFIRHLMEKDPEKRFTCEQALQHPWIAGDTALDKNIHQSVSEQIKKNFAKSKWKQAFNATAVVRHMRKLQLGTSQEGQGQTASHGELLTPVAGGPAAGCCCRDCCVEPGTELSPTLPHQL

[7] = molecular target: Calcium/calmodulin-dependent protein kinase type II subunit alpha (Homo sapiens) (UniProt Q9UQM7); settings: Compound concentration 1000.0 nM
[8] = molecular target: Cyclin-dependent kinase 2 (Homo sapiens) (UniProt P24941); settings: Compound concentration 1000.0 nM
[9] = molecular target: Cyclin-dependent kinase 8 (Homo sapiens) (UniProt P49336); settings: Compound concentration 1000.0 nM
[10] = molecular target: Dual specificity protein kinase CLK4 (Homo sapiens) (UniProt Q9HAZ1); settings: Compound concentration 1000.0 nM
[11] = molecular target: Casein kinase II subunit alpha' (Homo sapiens) (UniProt P19784); settings: Compound concentration 1000.0 nM
[12] = molecular target: Death-associated protein kinase 2 (Homo sapiens) (UniProt Q9UIK4); settings: Compound concentration 1000.0 nM
Chain of Death-associated protein kinase 2 (Homo sapiens) (Q9UIK4 whole entry, looked up): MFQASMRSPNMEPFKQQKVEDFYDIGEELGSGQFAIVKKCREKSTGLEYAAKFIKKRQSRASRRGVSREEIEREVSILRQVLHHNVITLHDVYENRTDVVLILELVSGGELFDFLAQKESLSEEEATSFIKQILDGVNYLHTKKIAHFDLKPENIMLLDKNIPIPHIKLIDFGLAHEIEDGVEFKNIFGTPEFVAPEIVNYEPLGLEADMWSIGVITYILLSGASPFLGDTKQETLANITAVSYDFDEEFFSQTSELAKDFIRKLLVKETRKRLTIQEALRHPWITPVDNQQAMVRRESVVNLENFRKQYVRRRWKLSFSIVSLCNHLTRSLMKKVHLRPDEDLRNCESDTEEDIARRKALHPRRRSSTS

[13] = molecular target: Dual specificity tyrosine-phosphorylation-regulated kinase 1B (Homo sapiens) (UniProt Q9Y463); settings: Compound concentration 1000.0 nM
[14] = system: Epidermal growth factor receptor (Homo sapiens), P00533 [G719C]; settings: Compound concentration 1000.0 nM
[15] = molecular target: Eukaryotic translation initiation factor 2-alpha kinase 1 (Homo sapiens) (UniProt Q9BQI3); settings: Compound concentration 1000.0 nM
[16] = molecular target: Ephrin type-B receptor 1 (Homo sapiens) (UniProt P54762); settings: Compound concentration 1000.0 nM
[17] = molecular target: Mitogen-activated protein kinase 15 (Homo sapiens) (UniProt Q8TD08); settings: Compound concentration 1000.0 nM
[18] = molecular target: Tyrosine-protein kinase Fes/Fps (Homo sapiens) (UniProt P07332); settings: Compound concentration 1000.0 nM
[19] = system: Receptor-type tyrosine-protein kinase FLT3 (Homo sapiens), P36888 [R834Q]; settings: Compound concentration 1000.0 nM
[20] = molecular target: Rhodopsin kinase GRK1 (Homo sapiens) (UniProt Q15835); settings: Compound concentration 1000.0 nM
[21] = molecular target: Homeodomain-interacting protein kinase 1 (Homo sapiens) (UniProt Q86Z02); settings: Compound concentration 1000.0 nM
[22] = system: Mast/stem cell growth factor receptor Kit (Homo sapiens), P10721 [D816V]; settings: Compound concentration 1000.0 nM
[23] = molecular target: LIM domain kinase 2 (Homo sapiens) (UniProt P53671); settings: Compound concentration 1000.0 nM
[24] = molecular target: Mitogen-activated protein kinase kinase kinase 2 (Homo sapiens) (UniProt Q9Y2U5); settings: Compound concentration 1000.0 nM
[25] = molecular target: Mitogen-activated protein kinase kinase kinase 3 (Homo sapiens) (UniProt Q99759); settings: Compound concentration 1000.0 nM
Chain of Mitogen-activated protein kinase kinase kinase 3 (Homo sapiens) (Q99759 whole entry): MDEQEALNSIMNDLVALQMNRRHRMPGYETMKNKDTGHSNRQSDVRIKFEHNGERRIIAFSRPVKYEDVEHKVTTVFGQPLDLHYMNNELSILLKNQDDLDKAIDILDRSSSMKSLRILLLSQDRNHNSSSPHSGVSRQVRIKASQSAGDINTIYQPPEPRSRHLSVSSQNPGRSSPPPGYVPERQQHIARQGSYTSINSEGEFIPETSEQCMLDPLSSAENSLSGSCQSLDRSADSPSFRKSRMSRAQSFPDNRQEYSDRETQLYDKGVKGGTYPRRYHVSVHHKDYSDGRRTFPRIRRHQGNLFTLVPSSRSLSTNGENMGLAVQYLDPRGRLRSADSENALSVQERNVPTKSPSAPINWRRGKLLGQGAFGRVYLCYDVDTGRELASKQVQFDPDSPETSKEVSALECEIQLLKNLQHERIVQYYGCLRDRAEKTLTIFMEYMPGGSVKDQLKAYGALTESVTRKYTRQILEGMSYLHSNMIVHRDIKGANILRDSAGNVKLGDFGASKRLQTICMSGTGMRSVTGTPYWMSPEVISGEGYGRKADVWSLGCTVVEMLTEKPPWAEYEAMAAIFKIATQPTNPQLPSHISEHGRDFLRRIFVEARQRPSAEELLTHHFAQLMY

[26] = molecular target: Mitogen-activated protein kinase kinase kinase kinase 5 (Homo sapiens) (UniProt Q9Y4K4); settings: Compound concentration 1000.0 nM
Chain of Mitogen-activated protein kinase kinase kinase kinase 5 (Homo sapiens) (Q9Y4K4 whole entry, looked up): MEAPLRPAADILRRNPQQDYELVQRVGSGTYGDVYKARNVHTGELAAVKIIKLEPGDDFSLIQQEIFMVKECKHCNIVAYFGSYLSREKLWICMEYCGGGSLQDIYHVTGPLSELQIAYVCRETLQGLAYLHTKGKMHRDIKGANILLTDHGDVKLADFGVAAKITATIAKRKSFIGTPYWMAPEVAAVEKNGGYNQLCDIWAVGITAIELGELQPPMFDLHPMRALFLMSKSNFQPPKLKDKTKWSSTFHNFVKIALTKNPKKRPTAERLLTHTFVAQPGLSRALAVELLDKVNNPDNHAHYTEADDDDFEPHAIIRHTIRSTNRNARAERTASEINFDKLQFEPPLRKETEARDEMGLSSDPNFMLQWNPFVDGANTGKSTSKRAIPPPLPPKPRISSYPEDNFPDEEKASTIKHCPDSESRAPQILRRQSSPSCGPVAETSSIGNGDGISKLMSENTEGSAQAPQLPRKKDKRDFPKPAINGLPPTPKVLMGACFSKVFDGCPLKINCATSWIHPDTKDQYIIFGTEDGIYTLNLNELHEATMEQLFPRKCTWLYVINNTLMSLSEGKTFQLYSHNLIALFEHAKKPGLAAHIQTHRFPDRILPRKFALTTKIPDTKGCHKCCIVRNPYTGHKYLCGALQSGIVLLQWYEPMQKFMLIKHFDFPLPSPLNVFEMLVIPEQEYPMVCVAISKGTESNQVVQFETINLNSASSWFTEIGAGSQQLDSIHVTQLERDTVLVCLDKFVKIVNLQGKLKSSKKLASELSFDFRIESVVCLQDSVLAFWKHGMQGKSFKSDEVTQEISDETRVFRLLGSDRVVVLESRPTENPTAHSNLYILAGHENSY

[27] = molecular target: MAP/microtubule affinity-regulating kinase 4 (Homo sapiens) (UniProt Q96L34); settings: Compound concentration 1000.0 nM
[28] = molecular target: Tyrosine-protein kinase Mer (Homo sapiens) (UniProt Q12866); settings: Compound concentration 1000.0 nM
[29] = molecular target: Serine/threonine-protein kinase 38-like (Homo sapiens) (UniProt Q9Y2H1); settings: Compound concentration 1000.0 nM
[30] = molecular target: Mitogen-activated protein kinase 11 (Homo sapiens) (UniProt Q15759); settings: Compound concentration 1000.0 nM
[31] = molecular target: Serine/threonine-protein kinase PAK 1 (Homo sapiens) (UniProt Q13153); settings: Compound concentration 1000.0 nM
Chain of Serine/threonine-protein kinase PAK 1 (Homo sapiens) (Q13153 whole entry): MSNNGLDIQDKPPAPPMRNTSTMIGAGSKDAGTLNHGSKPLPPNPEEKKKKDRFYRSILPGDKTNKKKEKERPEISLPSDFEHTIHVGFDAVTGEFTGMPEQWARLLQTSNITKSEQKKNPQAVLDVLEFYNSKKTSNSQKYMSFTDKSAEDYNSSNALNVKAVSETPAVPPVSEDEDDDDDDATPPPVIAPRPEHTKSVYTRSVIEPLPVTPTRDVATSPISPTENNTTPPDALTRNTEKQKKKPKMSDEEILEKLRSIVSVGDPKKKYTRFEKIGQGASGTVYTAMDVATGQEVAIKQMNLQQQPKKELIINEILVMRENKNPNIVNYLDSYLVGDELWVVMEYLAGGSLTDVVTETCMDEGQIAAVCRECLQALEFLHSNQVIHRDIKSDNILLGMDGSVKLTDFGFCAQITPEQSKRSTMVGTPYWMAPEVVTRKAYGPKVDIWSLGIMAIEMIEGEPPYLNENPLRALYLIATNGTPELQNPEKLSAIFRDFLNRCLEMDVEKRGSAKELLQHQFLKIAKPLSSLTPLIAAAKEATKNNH

[32] = molecular target: Serine/threonine-protein kinase pim-1 (Homo sapiens) (UniProt P11309); settings: Compound concentration 1000.0 nM
[33] = molecular target: Serine/threonine-protein kinase PLK3 (Homo sapiens) (UniProt Q9H4B4); settings: Compound concentration 1000.0 nM
[34] = molecular target: Ribosomal protein S6 kinase alpha-1 (Homo sapiens) (UniProt Q15418); settings: Compound concentration 1000.0 nM
[35] = molecular target: Ribosomal protein S6 kinase alpha-6 (Homo sapiens) (UniProt Q9UK32); settings: Compound concentration 1000.0 nM
[36] = molecular target: Activated CDC42 kinase 1 (Homo sapiens) (UniProt Q07912); settings: Compound concentration 1000.0 nM
[37] = molecular target: Tyrosine-protein kinase TXK (Homo sapiens) (UniProt P42681); settings: Compound concentration 1000.0 nM
[38] = molecular target: Non-receptor tyrosine-protein kinase TYK2 (Homo sapiens) (UniProt P29597); settings: Compound concentration 1000.0 nM
[39] = molecular target: Vascular endothelial growth factor receptor 2 (Homo sapiens) (UniProt P35968); settings: Compound concentration 1000.0 nM
Chain of Vascular endothelial growth factor receptor 2 (Homo sapiens) (P35968 whole entry): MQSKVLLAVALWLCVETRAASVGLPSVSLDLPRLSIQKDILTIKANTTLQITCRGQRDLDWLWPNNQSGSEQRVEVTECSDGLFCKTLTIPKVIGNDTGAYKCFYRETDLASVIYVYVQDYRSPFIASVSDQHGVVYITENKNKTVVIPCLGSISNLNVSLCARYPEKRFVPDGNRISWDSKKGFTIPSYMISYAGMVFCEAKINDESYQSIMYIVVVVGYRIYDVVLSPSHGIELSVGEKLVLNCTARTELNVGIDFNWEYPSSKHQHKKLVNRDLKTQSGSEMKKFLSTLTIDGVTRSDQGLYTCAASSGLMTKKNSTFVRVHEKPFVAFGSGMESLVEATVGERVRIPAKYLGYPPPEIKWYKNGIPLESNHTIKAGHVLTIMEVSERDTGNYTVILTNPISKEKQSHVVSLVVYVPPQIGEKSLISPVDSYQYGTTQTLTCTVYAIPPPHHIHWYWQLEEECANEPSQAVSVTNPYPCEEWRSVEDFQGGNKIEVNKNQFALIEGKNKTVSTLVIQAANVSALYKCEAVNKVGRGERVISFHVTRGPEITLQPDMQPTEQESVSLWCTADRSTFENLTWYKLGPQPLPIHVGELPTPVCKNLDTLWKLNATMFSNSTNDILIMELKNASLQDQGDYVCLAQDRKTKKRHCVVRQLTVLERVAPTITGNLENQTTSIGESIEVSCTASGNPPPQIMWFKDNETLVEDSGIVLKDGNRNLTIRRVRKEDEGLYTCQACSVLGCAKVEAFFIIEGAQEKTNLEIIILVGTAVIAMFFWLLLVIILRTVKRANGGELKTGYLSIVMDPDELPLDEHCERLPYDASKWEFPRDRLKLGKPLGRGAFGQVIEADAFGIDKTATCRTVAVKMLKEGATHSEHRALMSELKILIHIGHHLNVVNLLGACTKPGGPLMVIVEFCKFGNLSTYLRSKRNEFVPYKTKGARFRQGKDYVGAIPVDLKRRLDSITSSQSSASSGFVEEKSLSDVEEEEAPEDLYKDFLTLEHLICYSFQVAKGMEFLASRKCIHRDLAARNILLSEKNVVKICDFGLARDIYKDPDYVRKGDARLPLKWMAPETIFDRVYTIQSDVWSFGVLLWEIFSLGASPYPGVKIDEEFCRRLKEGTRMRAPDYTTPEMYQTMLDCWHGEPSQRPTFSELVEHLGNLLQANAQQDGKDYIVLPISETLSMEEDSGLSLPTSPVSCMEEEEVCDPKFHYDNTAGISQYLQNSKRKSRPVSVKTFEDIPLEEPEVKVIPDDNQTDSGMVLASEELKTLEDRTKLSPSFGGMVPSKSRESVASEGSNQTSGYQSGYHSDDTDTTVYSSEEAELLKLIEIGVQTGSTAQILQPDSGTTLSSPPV

[40] = molecular target: Serine/threonine-protein kinase VRK2 (Homo sapiens) (UniProt Q86Y07); settings: Compound concentration 1000.0 nM
[41] = molecular target: Serine/threonine-protein kinase 25 (Homo sapiens) (UniProt O00506); settings: Compound concentration 1000.0 nM
[42] = molecular target: Tyrosine-protein kinase ZAP-70 (Homo sapiens) (UniProt P43403); settings: Compound concentration 1000.0 nM
[43] = molecular target: 5-hydroxytryptamine receptor 2C (Homo sapiens) (UniProt P28335); settings: Compound concentration 10.0 uM
[44] = molecular target: Alpha-2C adrenergic receptor (Homo sapiens) (UniProt P18825); settings: Compound concentration 10.0 uM
Rattus norvegicus = species on record: Rattus norvegicus; settings: Compound concentration 10.0 uM
[45] = molecular target: Alpha-1D adrenergic receptor (Homo sapiens) (UniProt P25100); settings: Compound concentration 10.0 uM

Chain of AP2-associated protein kinase 1 (Homo sapiens) (Q2M2I8 whole entry, looked up): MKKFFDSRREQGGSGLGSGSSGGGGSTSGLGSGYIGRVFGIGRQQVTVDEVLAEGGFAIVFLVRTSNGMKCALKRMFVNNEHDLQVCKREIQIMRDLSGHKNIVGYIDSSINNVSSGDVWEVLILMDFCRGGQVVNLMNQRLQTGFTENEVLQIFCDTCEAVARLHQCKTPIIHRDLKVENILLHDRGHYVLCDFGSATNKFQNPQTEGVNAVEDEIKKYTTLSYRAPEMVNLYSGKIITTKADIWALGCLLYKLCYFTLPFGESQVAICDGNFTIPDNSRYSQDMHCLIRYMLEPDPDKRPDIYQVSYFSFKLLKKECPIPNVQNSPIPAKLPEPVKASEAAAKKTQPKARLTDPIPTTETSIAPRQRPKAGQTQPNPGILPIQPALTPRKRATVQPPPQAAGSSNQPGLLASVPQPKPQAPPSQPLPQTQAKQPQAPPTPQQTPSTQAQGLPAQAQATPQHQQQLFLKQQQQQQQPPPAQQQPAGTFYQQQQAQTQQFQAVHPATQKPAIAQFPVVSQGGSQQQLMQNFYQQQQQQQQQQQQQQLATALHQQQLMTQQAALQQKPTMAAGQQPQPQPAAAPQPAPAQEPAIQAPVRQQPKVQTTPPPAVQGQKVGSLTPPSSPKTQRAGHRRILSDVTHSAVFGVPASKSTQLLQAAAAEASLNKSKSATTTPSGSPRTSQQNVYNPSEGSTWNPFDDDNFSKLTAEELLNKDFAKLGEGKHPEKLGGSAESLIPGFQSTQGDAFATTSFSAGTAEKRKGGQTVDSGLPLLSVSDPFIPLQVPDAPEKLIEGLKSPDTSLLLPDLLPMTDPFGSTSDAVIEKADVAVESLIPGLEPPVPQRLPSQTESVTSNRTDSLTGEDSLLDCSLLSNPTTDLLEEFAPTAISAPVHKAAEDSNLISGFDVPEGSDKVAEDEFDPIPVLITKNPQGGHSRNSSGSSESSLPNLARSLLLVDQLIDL

## Cc1nccc(COC(=O)N2C[C@@H]3[C@@H](CNC(=O)c4ccc5[nH]nnc5c4)[C@@H]3C2)n1 [BI 3017]
[1]
  residual activity: 100%
[2]
  residual activity: 92%
[3]
  residual activity: 100%
[4]
  residual activity: 91%
[5]
  residual activity: 85%
[6]
  residual activity: 93%
[7]
  residual activity: 65%
[8]
  residual activity: 77%
[9]
  residual activity: 75%
[10]
  residual activity: 97%
[11]
  residual activity: 85%
[12]
  residual activity: 82%
[13]
  residual activity: 99%
[14]
  residual activity: 100%
[15]
  residual activity: 100%
[16]
  residual activity: 95%
[17]
  residual activity: 100%
[18]
  residual activity: 99%
[19]
  residual activity: 85%
[20]
  residual activity: 100%
[21]
  residual activity: 82%
[22]
  residual activity: 100%
[23]
  residual activity: 92%
[24]
  residual activity: 100%
[25]
  residual activity: 91%
[26]
  residual activity: 100%
[27]
  residual activity: 85%
[28]
  residual activity: 100%
[29]
  residual activity: 70%
[30]
  residual activity: 94%
[31]
  residual activity: 92%
[32]
  residual activity: 96%
[33]
  residual activity: 73%
[34]
  residual activity: 96%
[35]
  residual activity: 95%
[36]
  residual activity: 100%
[37]
  residual activity: 94%
[38]
  residual activity: 82%
[39]
  residual activity: 80%
[40]
  residual activity: 29%
[41]
  residual activity: 100%
[42]
  residual activity: 97%
[43]
  inhibition: 31.1%
[44]
  inhibition: 3.82%
Rattus norvegicus
  inhibition: -4.4%
[45]
  inhibition: -6.43%

## O=C(NC[C@@H]1[C@H]2CN(C(=O)OCc3cc(C(F)(F)F)cc(C(F)(F)F)c3)C[C@@H]12)c1ccc2[nH]nnc2c1 [BI 2545]
[1]
  residual activity: 96%
[2]
  residual activity: 100%
[3]
  residual activity: 87%
[4]
  residual activity: 93%
[5]
  residual activity: 100%
[6]
  residual activity: 77%
[7]
  residual activity: 91%
[8]
  residual activity: 100%
[9]
  residual activity: 100%
[10]
  residual activity: 98%
[11]
  residual activity: 92%
[12]
  residual activity: 85%
[13]
  residual activity: 86%
[14]
  residual activity: 100%
[15]
  residual activity: 91%
[16]
  residual activity: 100%
[17]
  residual activity: 100%
[18]
  residual activity: 95%
[19]
  residual activity: 88%
[20]
  residual activity: 90%
[21]
  residual activity: 85%
[22]
  residual activity: 93%
[23]
  residual activity: 83%
[24]
  residual activity: 80%
[25]
  residual activity: 94%
[26]
  residual activity: 97%
[27]
  residual activity: 94%
[28]
  residual activity: 100%
[29]
  residual activity: 45%
[30]
  residual activity: 100%
[31]
  residual activity: 100%
[32]
  residual activity: 98%
[33]
  residual activity: 89%
[34]
  residual activity: 83%
[35]
  residual activity: 86%
[36]
  residual activity: 100%
[37]
  residual activity: 84%
[38]
  residual activity: 100%
[39]
  residual activity: 96%
[40]
  residual activity: 100%
[41]
  residual activity: 95%
[42]
  residual activity: 60%
[43]
  inhibition: 41.5%
[44]
  inhibition: 19%
Rattus norvegicus
  inhibition: 63.7%
[45]
  inhibition: -1.41%
